Data taken from ChEMBL document CHEMBL1201862, “PubChem BioAssay data set” (2004).
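Tested at 5 concentrations; 48 h exposure; 96-well plates; endpoints linearly interpolated, else capped at highest concentration. GI50 is the concentration that inhibits growth by half.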 Calls of active or inactive are those of the source. Rule as the data show it: active = GI50 up to about 1.1 µM and inactive = higher.

Key:
Test in all cases: NCI tumour cell line growth inhibition, 48 h
OVCAR-5 = system: OVCAR-5
SW-620 = system: SW-620
CAKI-1 = system: CAKI-1
NCI/ADR-RES = system: NCI/ADR-RES
A549 = system: A549
HCC 2998 = system: HCC 2998
NCI-H522 = system: NCI-H522
MCF7 = system: MCF7
HL-60 = system: HL-60
SK-MEL-28 = system: SK-MEL-28
OVCAR-4 = system: OVCAR-4
MDA-MB-435 = system: MDA-MB-435
DU-145 = system: DU-145
SK-MEL-2 = system: SK-MEL-2
SN12C = system: SN12C
PC-3 = system: PC-3
UACC-257 = system: UACC-257
MDA-N = system: MDA-N
U-251 = system: U-251
SF-268 = system: SF-268
HOP-92 = system: HOP-92
T47D = system: T47D
NCI-H23 = system: NCI-H23
SR = system: SR
IGROV-1 = system: IGROV-1
OVCAR-8 = system: OVCAR-8
M14 = system: M14
ACHN = system: ACHN
SK-OV-3 = system: SK-OV-3
MOLT-4 = system: MOLT-4
786-0 = system: 786-0
CCRF-CEM = system: CCRF-CEM
UO-31 = system: UO-31
HCT-15 = system: HCT-15
Malme-3M = system: Malme-3M
K562 = system: K562
LOX IMVI = system: LOX IMVI
KM12 = system: KM12
SNB-19 = system: SNB-19
SNB-75 = system: SNB-75
TK-10 = system: TK-10
SF-539 = system: SF-539
RXF 393 = system: RXF 393
HCT-116 = system: HCT-116
A498 = system: A498
RPMI-8226 = system: RPMI-8226
COLO 205 = system: COLO 205
OVCAR-3 = system: OVCAR-3
BT-549 = system: BT-549
Hs-578T = system: Hs-578T
HT-29 = system: HT-29
EKVX = system: EKVX
HOP-62 = system: HOP-62
MDA-MB-231 = system: MDA-MB-231
SK-MEL-5 = system: SK-MEL-5
NCI-H226 = system: NCI-H226
SF-295 = system: SF-295
NCI-H460 = system: NCI-H460
UACC-62 = system: UACC-62
KM-20L2 = system: KM-20L2
DMS-114 = system: DMS-114
M19-MEL = system: M19-MEL
LXFL 529 = system: LXFL 529

Measured: GI50

CC(=O)OC(C)c1cc2c(s1)C(=O)c1sccc1C2=O (stereo unspecified)
active: SW-620 714 nM | MCF7 995 nM | SK-MEL-28 916 nM | MDA-MB-435 192 nM | DU-145 416 nM | SK-MEL-2 504 nM | SN12C 542 nM | UACC-257 215 nM | MDA-N 73.5 nM | U-251 944 nM | SF-268 989 nM | NCI-H23 221 nM | SR 510 nM | M14 140 nM | Malme-3M 210 nM | LOX IMVI 446 nM | SF-539 268 nM | RPMI-8226 951 nM | OVCAR-3 604 nM | BT-549 700 nM | Hs-578T 807 nM | HOP-62 1030 nM | SK-MEL-5 139 nM | SF-295 851 nM | NCI-H460 1060 nM
inactive: OVCAR-5 1730 nM | CAKI-1 3140 nM | NCI/ADR-RES 1710 nM | A549 1170 nM | HCC 2998 1990 nM | NCI-H522 1270 nM | HL-60 1740 nM | OVCAR-4 1960 nM | PC-3 2190 nM | HOP-92 3510 nM | T47D 2580 nM | IGROV-1 2020 nM | OVCAR-8 1810 nM | ACHN 1450 nM | SK-OV-3 2950 nM | MOLT-4 2700 nM | 786-0 4450 nM | CCRF-CEM 2760 nM | UO-31 1550 nM | K562 2690 nM | KM12 1750 nM | SNB-19 1290 nM | SNB-75 1290 nM | TK-10 1850 nM | RXF 393 1560 nM | HCT-116 1460 nM | A498 2330 nM | COLO 205 1890 nM | HT-29 1960 nM | EKVX 2030 nM | MDA-MB-231 1340 nM | NCI-H226 2040 nM
902 nM: HCT-15

CC(=O)Nc1ccc2c3c(cc(O)c2c1)N(C(=O)CCCCCC(=O)N1CC(CCl)c2c1cc(O)c1cc(NC(C)=O)ccc21)CC3CCl (stereo unspecified)
377 nM: HCT-15
inactive: NCI/ADR-RES 1380 nM
active: OVCAR-5 101 nM | SW-620 130 nM | CAKI-1 12.3 nM | A549 17.6 nM | HCC 2998 21.1 nM | NCI-H522 < 10 nM | MCF7 < 10 nM | HL-60 115 nM | SK-MEL-28 54.7 nM | OVCAR-4 181 nM | MDA-MB-435 19.1 nM | DU-145 < 10 nM | SK-MEL-2 14.7 nM | SN12C < 12 nM | PC-3 45 nM | UACC-257 16.8 nM | MDA-N 16.4 nM | U-251 < 10 nM | SF-268 < 10 nM | HOP-92 < 10 nM | UACC-62 < 10 nM | T47D < 10 nM | NCI-H23 < 10 nM | SR < 10 nM | IGROV-1 29.2 nM | OVCAR-8 < 10.4 nM | M14 < 10 nM | ACHN < 10 nM | SK-OV-3 40.5 nM | MOLT-4 < 10 nM | 786-0 < 10 nM | UO-31 105 nM | Malme-3M 12.5 nM | K562 62.5 nM | LOX IMVI < 10 nM | KM12 41.6 nM | SNB-19 < 10 nM | SNB-75 < 10 nM | TK-10 169 nM | SF-539 12 nM | RXF 393 15.2 nM | HCT-116 10.1 nM | A498 10.9 nM | RPMI-8226 29.6 nM | COLO 205 16 nM | OVCAR-3 17.2 nM | BT-549 13.4 nM | Hs-578T 36.2 nM | HT-29 32.1 nM | EKVX 193 nM | HOP-62 19 nM | MDA-MB-231 30.1 nM | SK-MEL-5 10.9 nM | NCI-H226 < 14.9 nM | SF-295 15.6 nM | NCI-H460 < 10 nM

O=C1C(Cl)N(c2cccc([N+](=O)[O-])c2)C1c1c[nH]c2ccccc12 (stereo unspecified)
inactive: OVCAR-5 11900 nM | SW-620 21700 nM | A549 22100 nM | NCI-H522 16000 nM | HL-60 22300 nM | SK-MEL-28 23700 nM | OVCAR-4 18100 nM | SK-MEL-2 14400 nM | SN12C 28600 nM | UACC-257 20700 nM | U-251 22200 nM | SF-268 29600 nM | HOP-92 19000 nM | UACC-62 13800 nM | NCI-H23 22200 nM | SR 10700 nM | IGROV-1 16400 nM | OVCAR-8 23100 nM | M14 16100 nM | SK-OV-3 11100 nM | MOLT-4 8380 nM | CCRF-CEM 4610 nM | UO-31 17500 nM | Malme-3M 2360 nM | K562 19000 nM | KM12 20200 nM | KM-20L2 19900 nM | SNB-19 23900 nM | SNB-75 22900 nM | TK-10 20400 nM | SF-539 15300 nM | RXF 393 12900 nM | DMS-114 15100 nM | HCT-116 19200 nM | RPMI-8226 16900 nM | COLO 205 22500 nM | OVCAR-3 20500 nM | HT-29 17100 nM | M19-MEL 18100 nM | EKVX 28400 nM | HOP-62 17100 nM | SK-MEL-5 17000 nM | LXFL 529 6250 nM | SF-295 17800 nM | NCI-H460 12100 nM
